Laboratory results taken from article PMC10991509, “A phase I study of ATR inhibitor gartisertib (M4344) as a single agent and in combination with carboplatin in patients with advanced solid tumours” (British Journal of Cancer, 2024).

Legend:
ɣ-H2AX = ɣ-H2AX in ex vivo-stimulated CD45+ lymphocytes; parameters: species or system human; settings: 350 mg QD, n = 3, highest tested dose; 3 h post first dose
From the text: Exploratory objectives were to assess ATR inhibition and DNA damage by measuring phosphorylation of the Ser-139 residue of the histone variant H2AX (ɣ-H2AX) post-treatment in peripheral blood mononuclear cells (cohorts A2 and C), describe the mutational landscape and its relationship to BOR in patients with selected biomarkers (cohort C) and to determine changes in allele frequencies in mutations of interest and their association with clinical benefit (molecular response; cohorts A2 and C). Further details on the definitions of LOF mutations and methods of biomarker collection are described in the Supplementary Materials.
To determine H2AX phosphorylation (ɣ-H2AX) in lymphocytes, 100 µL of whole blood was stimulated with 62 µM 4NQO (4-nitroquinoline N-oxide, Sigma, UK) for 1 hour at 37°C. In parallel, 100 µL of whole blood was incubated with 10% DMSO (dimethyl sulfoxide, Sigma, UK) as an unstimulated control sample. The samples were subsequently treated (for 10 minutes at 37°C) with BD Lyse & Fix Solution (Becton Dickinson, USA) and the whole blood cells were permeabilized with ice-cold methanol (90% final concentration) for 30 minutes on ice. […] Cells were then analyzed using a FacsCanto II (Becton Dickinson, USA) collecting 10,000 events. […]

advanced solid tumours = experiment: Antitumour activity (RECIST v1.1); assay type: in vivo, human
From the text: The secondary objectives for cohorts A, A2, and B1 were to assess antitumour activity and PK. Endpoints associated with antitumour activity included confirmed best overall response (BOR), according to RECIST v1.1. PK endpoints included PK parameter estimates, derived from plasma concentration-time data. Please see the Supplementary Materials for details on further PK endpoints and assessments as well as the PK assessment schedule (Supplementary Table S2).
In cohort C, the primary objectives were to evaluate safety, tolerability, and antitumour activity of gartisertib monotherapy in patients with LOF mutations in ARID1A (cohort C1), ATRX and/or DAXX (cohort C2), or ATM (cohort C3). The primary endpoints included safety (treatment-emergent AEs [TEAEs] and treatment-related TEAEs; laboratory abnormalities; clinically significant abnormal vital signs; and clinically significant abnormal ECGs and antitumour activity (objective response [OR], defined as confirmed BOR of complete response [CR] or partial response [PR], according to RECIST v1.1). Secondary endpoints included duration of response; progression-free survival [PFS]) as well as PK parameter estimates of gartisertib in patients with LOF mutations. The Supplementary Materials provide further information on efficacy assessments and definitions.
In cohorts A, A2, B1, and C, antitumor activity was assessed in patients with measurable disease with standard criteria (Response Evaluation Criteria in Solid Tumors version 1.1 [RECIST v1.1]). In patients with prostate cancer, Prostate Cancer Clinical Trials Working Group 2 (PCWG2) criteria were used. Patients underwent an imaging scan at screening to document extent of initial disease and in all cohorts of the study, patients underwent repeat imaging scans. Imaging scans were locally assessed for all study cohorts. Bone scans were performed as were evaluations of serum […] in patients with ovarian cancer and serum prostate-specific antigen in patients with prostate cancer.
In addition, for cohort C, tumor assessments according to RECIST v1.1 were performed at baseline and at completion of every two cycles of treatment for the first six cycles and then every three cycles thereafter until disease progression or initiation of a new anticancer therapy line. Objective response, best overall response, duration of response and progression-free survival will be determined by the investigator based on these tumor assessments, with objective responses needing to be confirmed at a scan no fewer than 4 weeks after the original evaluation. Independent review may be performed if necessary.
Objective response was defined as a confirmed assessment of complete response or partial response by the investigator using RECIST v1.1. Confirmed best overall response was defined as the best confirmed response from start of treatment. Tumor assessments performed after start of further anticancer treatment line were not used to determine best overall response. Progression-free survival was defined as the time between the start of study treatment to progressive disease (PD) or death (in case PD is not observed prior to death).

Nc1nn2cc(F)cnc2c1C(=O)Nc1cncc(F)c1N1CCC(C(=O)N2CCN(C3COC3)CC2)CC1 [gartisertib, Gartisertib]
target inhibition of ɣ-H2AX (ɣ-H2AX): Complete target inhibition | cBOR Not evaluable (advanced solid tumours; Cohort A2, 100 mg BID (N=7)): 2 (28.6) n patients (%) | cBOR Partial response (advanced solid tumours; Cohort A2, 100 mg BID (N=7)): 0 (0.0) n patients (%) | cBOR Progressive disease (advanced solid tumours; Cohort A2, 100 mg BID (N=7)): 4 (57.1) n patients (%) | cBOR Stable disease (advanced solid tumours; Cohort A2, 100 mg BID (N=7)): 1 (14.3) n patients (%) | cBOR Not evaluable (advanced solid tumours; Cohort A2, 150 mg QD (N=4)): 0 (0.0) n patients (%) | cBOR Partial response (advanced solid tumours; Cohort A2, 150 mg QD (N=4)): 0 (0.0) n patients (%) | cBOR Progressive disease (advanced solid tumours; Cohort A2, 150 mg QD (N=4)): 3 (75.0) n patients (%) | cBOR Stable disease (advanced solid tumours; Cohort A2, 150 mg QD (N=4)): 1 (25.0) n patients (%) | cBOR Not evaluable (advanced solid tumours; Cohort A2, 250 mg QD (N=7)): 0 (0.0) n patients (%) | cBOR Partial response (advanced solid tumours; Cohort A2, 250 mg QD (N=7)): 0 (0.0) n patients (%) | cBOR Progressive disease (advanced solid tumours; Cohort A2, 250 mg QD (N=7)): 3 (42.9) n patients (%) | cBOR Stable disease (advanced solid tumours; Cohort A2, 250 mg QD (N=7)): 4 (57.1) n patients (%) | cBOR Not evaluable (advanced solid tumours; Cohort A2, 350 mg QD (N=5)): 0 (0.0) n patients (%) | cBOR Partial response (advanced solid tumours; Cohort A2, 350 mg QD (N=5)): 0 (0.0) n patients (%) | cBOR Progressive disease (advanced solid tumours; Cohort A2, 350 mg QD (N=5)): 3 (60.0) n patients (%) | cBOR Stable disease (advanced solid tumours; Cohort A2, 350 mg QD (N=5)): 2 (40.0) n patients (%) | cBOR Not evaluable (advanced solid tumours; Cohort A, 10 mg BIW (N=1)): 1 (100.0) n patients (%) | cBOR Partial response (advanced solid tumours; Cohort A, 10 mg BIW (N=1)): 0 (0.0) n patients (%) | cBOR Progressive disease (advanced solid tumours; Cohort A, 10 mg BIW (N=1)): 0 (0.0) n patients (%) | cBOR Stable disease (advanced solid tumours; Cohort A, 10 mg BIW (N=1)): 0 (0.0) n patients (%) | cBOR Not evaluable (advanced solid tumours; Cohort A, 20 mg BIW (N=1)): 0 (0.0) n patients (%) | cBOR Partial response (advanced solid tumours; Cohort A, 20 mg BIW (N=1)): 0 (0.0) n patients (%) | cBOR Progressive disease (advanced solid tumours; Cohort A, 20 mg BIW (N=1)): 0 (0.0) n patients (%) | cBOR Stable disease (advanced solid tumours; Cohort A, 20 mg BIW (N=1)): 1 (100.0) n patients (%) | cBOR Not evaluable (advanced solid tumours; Cohort A, 40 mg BIW (N=1)): 0 (0.0) n patients (%) | cBOR Partial response (advanced solid tumours; Cohort A, 40 mg BIW (N=1)): 0 (0.0) n patients (%) | cBOR Progressive disease (advanced solid tumours; Cohort A, 40 mg BIW (N=1)): 1 (100.0) n patients (%) | cBOR Stable disease (advanced solid tumours; Cohort A, 40 mg BIW (N=1)): 0 (0.0) n patients (%) | cBOR Not evaluable (advanced solid tumours; Cohort A, 80 mg BIW (N=1)): 0 (0.0) n patients (%) | cBOR Partial response (advanced solid tumours; Cohort A, 80 mg BIW (N=1)): 0 (0.0) n patients (%) | cBOR Progressive disease (advanced solid tumours; Cohort A, 80 mg BIW (N=1)): 1 (100.0) n patients (%) | cBOR Stable disease (advanced solid tumours; Cohort A, 80 mg BIW (N=1)): 0 (0.0) n patients (%) | cBOR Not evaluable (advanced solid tumours; Cohort A, 160 mg BIW (N=1)): 0 (0.0) n patients (%) | cBOR Partial response (advanced solid tumours; Cohort A, 160 mg BIW (N=1)): 0 (0.0) n patients (%) | cBOR Progressive disease (advanced solid tumours; Cohort A, 160 mg BIW (N=1)): 1 (100.0) n patients (%) | cBOR Stable disease (advanced solid tumours; Cohort A, 160 mg BIW (N=1)): 0 (0.0) n patients (%) | cBOR Not evaluable (advanced solid tumours; Cohort A, 300 mg BIW (N=1)): 0 (0.0) n patients (%) | cBOR Partial response (advanced solid tumours; Cohort A, 300 mg BIW (N=1)): 0 (0.0) n patients (%) | cBOR Progressive disease (advanced solid tumours; Cohort A, 300 mg BIW (N=1)): 1 (100.0) n patients (%) | cBOR Stable disease (advanced solid tumours; Cohort A, 300 mg BIW (N=1)): 0 (0.0) n patients (%) | cBOR Not evaluable (advanced solid tumours; Cohort A, 450 mg BIW (N=3)): 0 (0.0) n patients (%) | cBOR Partial response (advanced solid tumours; Cohort A, 450 mg BIW (N=3)): 0 (0.0) n patients (%) | cBOR Progressive disease (advanced solid tumours; Cohort A, 450 mg BIW (N=3)): 1 (33.3) n patients (%) | cBOR Stable disease (advanced solid tumours; Cohort A, 450 mg BIW (N=3)): 2 (66.7) n patients (%) | cBOR Not evaluable (advanced solid tumours; Cohort A, 700 mg BIW (N=6)): 2 (33.3) n patients (%) | cBOR Partial response (advanced solid tumours; Cohort A, 700 mg BIW (N=6)): 0 (0.0) n patients (%) | cBOR Progressive disease (advanced solid tumours; Cohort A, 700 mg BIW (N=6)): 2 (33.3) n patients (%) | cBOR Stable disease (advanced solid tumours; Cohort A, 700 mg BIW (N=6)): 2 (33.3) n patients (%) | cBOR Not evaluable (advanced solid tumours; Cohort A, 1050 mg BIW (N=7)): 1 (14.3) n patients (%) | cBOR Partial response (advanced solid tumours; Cohort A, 1050 mg BIW (N=7)): 0 (0.0) n patients (%) | cBOR Progressive disease (advanced solid tumours; Cohort A, 1050 mg BIW (N=7)): 5 (71.4) n patients (%) | cBOR Stable disease (advanced solid tumours; Cohort A, 1050 mg BIW (N=7)): 1 (14.3) n patients (%) | cBOR Not evaluable (advanced solid tumours; Cohort A, 1200 mg BIW (N=4)): 2 (50.0) n patients (%) | cBOR Partial response (advanced solid tumours; Cohort A, 1200 mg BIW (N=4)): 0 (0.0) n patients (%) | cBOR Progressive disease (advanced solid tumours; Cohort A, 1200 mg BIW (N=4)): 1 (25.0) n patients (%) | cBOR Stable disease (advanced solid tumours; Cohort A, 1200 mg BIW (N=4)): 1 (25.0) n patients (%) | cBOR Not evaluable (advanced solid tumours; Cohort C, 250 mg QD (N=13)): 2 (15.4) n patients (%) | cBOR Partial response (advanced solid tumours; Cohort C, 250 mg QD (N=13)): 0 (0.0) n patients (%) | cBOR Progressive disease (advanced solid tumours; Cohort C, 250 mg QD (N=13)): 8 (61.5) n patients (%) | cBOR Stable disease (advanced solid tumours; Cohort C, 250 mg QD (N=13)): 3 (23.1) n patients (%) | BOR of SD (advanced solid tumours; cohort A2 (full analysis set 23)): 34.8% | BOR of SD (advanced solid tumours; cohort A (full analysis set 26)): 26.9% | BOR of SD (advanced solid tumours; cohort C (full analysis set 13)): 23.1% | median PFS interval (advanced solid tumours; cohort C, 95% CI 0.8, 2.1): 1.6 months | disease control according to selected biomarker status (ARID1A, ATRX/DAXX, ATM) (advanced solid tumours; cohorts A2 and C): No difference in disease control | patients with SD for >6 months (advanced solid tumours; three patients across all study cohorts): 3.1%
